Experimental data from US20210115494A1, “Improved method for measurement of microbial biomass” (Mycometer A/S, priority 2018, published 2021).

Experiments:
Assay type in all cases: biochemical
[1] = tested on: NAHA activity from Fusarium culmorum; test: NAHA activity assay, Fusarium culmorum
Procedure: (§1) In order to determine NAHA activity in different samples, the technology in WO 98/033934 was employed: A sample containing a dried or freeze dried organism is added to a buffer solution containing 4-Methylumbelliferyl N-acetyl-β-D-glucosaminide in a concentration of 20 μM. The reaction-time is varied depending on the ambient temperature and according to a reaction-time/temperature data sheet previously developed for fungal NAHA activity at various temperatures, and is 30 minutes at 23° C. The resulting fluorescence formed during the reaction time is monitored in a calibrated fluorometer.
(§2) Experiments were conducted where varying concentrations of AgNO3 was added to an analysis substrate. Furthermore, the experiments where performed on dried or freeze dried materials where both intact and fragmented cells are to be expected to be present.
(§3) Experiments analogous to those in example 1 were carried out, but instead of using non-specific inhibitors, the effect of different concentrations of DNJNAc on the NAHA activity in various biomass containing samples was investigated.

[2] = tested on: NAHA activity from Birch pollen; test: NAHA activity assay, birch pollen; conditions: Birch sollen
Procedure: as §1, §2, §3

[3] = tested on: NAHA activity from Aspergillus versicolor; test: NAHA activity assay, Aspergillus versicolor
Procedure: as §1, §3

[4] = tested on: NAHA activity from Penicillium crysogenum; test: NAHA activity assay, Penicillium crysogenum; conditions: Penicillium chrysogenum
Procedure: as §1, §2, §3

[5] = tested on: NAHA activity from Aspergillus fumigatus; test: NAHA activity assay, Aspergillus fumigatus (Table 4b, state not given)
Procedure: as §1, §3

[6] = tested on: NAHA activity from Cat dander; test: NAHA activity assay, cat dander
Procedure: as §1, §2, §3

[7] = tested on: NAHA activity from Aureobasidium pullulans; test: NAHA activity assay, Aureobasidium pullulans
Procedure: as §1, §2, §3

[8] = tested on: NAHA activity from Mucor hiemalis; test: NAHA activity assay, Mucor hiemalis
Procedure: as §1, §2, §3

[9] = tested on: NAHA activity from Rhizopus stolonifer; test: NAHA activity assay, Rhizopus stolonifer
Procedure: as §1, §3

[10] = tested on: NAHA activity from Alternaria tenuissima; test: NAHA activity assay, Alternaria tenuissima
Procedure: as §1, §3

[11] = tested on: NAHA activity from Stachybotrys chartarum; test: NAHA activity assay, Stachybotrys chartarum; conditions: DNJNAc 24.5 μM
Procedure: as §1, §2, §3

## CC(=O)N[C@H]1CN[C@H](CO)[C@@H](O)[C@@H]1O [DNJNAc, 2-Acetamido-1,2-dideoxynojirimycin]
[1]; DNJNAc 24.5 μM
  NAHA activity, 0 μM DNJNAc = 100%: 85%
[1]; DNJNAc 49 μM
  NAHA activity, 0 μM DNJNAc = 100%: 82%
[1]; DNJNAc 98 μM
  NAHA activity, 0 μM DNJNAc = 100%: 98%
[1]; DNJNAc 196 μM
  NAHA activity, 0 μM DNJNAc = 100%: 95%
[2]; DNJNAc 24.5 μM
  NAHA activity, 0 μM DNJNAc = 100%: 10%
[2]; DNJNAc 49 μM
  NAHA activity, 0 μM DNJNAc = 100%: 9%
[2]; DNJNAc 98 μM
  NAHA activity, 0 μM DNJNAc = 100%: 8%
[2]; DNJNAc 196 μM
  NAHA activity, 0 μM DNJNAc = 100%: 9%
[3]; DNJNAc 24.5 μM
  NAHA activity, 0 μM DNJNAc = 100%: 92%
[3]; DNJNAc 49 μM
  NAHA activity, 0 μM DNJNAc = 100%: 79%
[3]; DNJNAc 98 μM
  NAHA activity, 0 μM DNJNAc = 100%: 71%
[3]; DNJNAc 196 μM
  NAHA activity, 0 μM DNJNAc = 100%: 63%
[4]; DNJNAc 24.5 μM
  NAHA activity, 0 μM DNJNAc = 100%: 89%
[4]; DNJNAc 49 μM
  NAHA activity, 0 μM DNJNAc = 100%: 86%
[4]; DNJNAc 98 μM
  NAHA activity, 0 μM DNJNAc = 100%: 74%
[4]; DNJNAc 196 μM
  NAHA activity, 0 μM DNJNAc = 100%: 76%
[5]; DNJNAc 24.5 μM
  NAHA activity, 0 μM DNJNAc = 100%: 122%
[5]; DNJNAc 49 μM
  NAHA activity, 0 μM DNJNAc = 100%: 110%
[5]; DNJNAc 98 μM
  NAHA activity, 0 μM DNJNAc = 100%: 89%
[5]; DNJNAc 196 μM
  NAHA activity, 0 μM DNJNAc = 100%: 88%
[6]; DNJNAc 24.5 μM
  NAHA activity, 0 μM DNJNAc = 100%: 7%
[6]; DNJNAc 49 μM
  NAHA activity, 0 μM DNJNAc = 100%: 5%
[6]; DNJNAc 98 μM
  NAHA activity, 0 μM DNJNAc = 100%: 3%
[6]; DNJNAc 196 μM
  NAHA activity, 0 μM DNJNAc = 100%: 2%
[7]; DNJNAc 24.5 μM
  NAHA activity, 0 μM DNJNAc = 100%: 56%
[7]; DNJNAc 49 μM
  NAHA activity, 0 μM DNJNAc = 100%: 67%
[7]; DNJNAc 98 μM
  NAHA activity, 0 μM DNJNAc = 100%: 50%
[7]; DNJNAc 196 μM
  NAHA activity, 0 μM DNJNAc = 100%: 27%
[8]; DNJNAc 24.5 μM
  NAHA activity, 0 μM DNJNAc = 100%: 58%
[8]; DNJNAc 49 μM
  NAHA activity, 0 μM DNJNAc = 100%: 37%
[8]; DNJNAc 98 μM
  NAHA activity, 0 μM DNJNAc = 100%: 45%
[8]; DNJNAc 196 μM
  NAHA activity, 0 μM DNJNAc = 100%: 25%
[9]; DNJNAc 24.5 μM
  NAHA activity, 0 μM DNJNAc = 100%: 46%
[9]; DNJNAc 49 μM
  NAHA activity, 0 μM DNJNAc = 100%: 32%
[9]; DNJNAc 98 μM
  NAHA activity, 0 μM DNJNAc = 100%: 23%
[9]; DNJNAc 196 μM
  NAHA activity, 0 μM DNJNAc = 100%: 18%
[10]; DNJNAc 24.5 μM
  NAHA activity, 0 μM DNJNAc = 100%: 72%
[10]; DNJNAc 49 μM
  NAHA activity, 0 μM DNJNAc = 100%: 79%
[10]; DNJNAc 98 μM
  NAHA activity, 0 μM DNJNAc = 100%: 58%
[10]; DNJNAc 196 μM
  NAHA activity, 0 μM DNJNAc = 100%: 48%
[11]
  NAHA activity, 0 μM DNJNAc = 100%: 90%
